From patent US8916702B2 (priority 2012, dated 2014)

Test system: HCV pseudoparticles (genotype 1a HCV E1 and E2 envelope, H77C isolate)
Test: microbe, parasite or virus in culture
Assay type: cell-based
Conditions: Hepatitis C virus, Huh-7, read-out: Activity (EC50 class), HCV pseudoparticles (genotype 1a, H77C) in Huh7 cells; EC50 expressed as class A/B

CC(CNC(=O)C(=O)Nc1ccc(F)cc1F)CNC(=O)c1ccc(Nc2nc(NC3(c4ccc(Cl)cc4)CC3)nc(OCC(F)(F)F)n2)cc1 (stereo not shown) [Compound 3473]
EC50: 0.01 to 10 nM
